The target in data set [1] is alpha-synuclein (Homo sapiens, UniProt P37840). In words: alpha-synuclein aggregation, thioflavin T (ThT) fluorescence. The class given is biochemical. On the procedure:
The antiaggregant effect of the compound of formula (Ia) according to the present invention on alpha-synuclein (αS) was evaluated in vitro by measuring the fluorescence intensity of the probe thioflavin T (ThT), a molecule that specifically binds to cross-β structures characteristic of amyloid-like aggregation. The compound of formula (Ia) was dissolved in dimethylsulfoxide to reach a concentration of […]. In this assay, 70 μM of alpha-synuclein was incubated with and without 10 μM, 20 μM and 50 μM of the compound of formula (Ia), under orbital agitation (600 rpm), at 37° C., for 5 days. After the incubation time, Tht was added to each sample and changes in the emission fluorescence spectra (λex=450 and λem=[…]) was monitored using a Horiba Fluoromax CP4 spectrofluorometer.

Data set [2] concerns Gram+ and Gram- bacteria (S. aureus, E. coli, E. faecalis, P. aeruginosa). As to the kind of experiment: Antibiotic activity, summary over the bacterial strains (Examples 3 and 7). The class given is cell-based. On the set-up: activity against Gram+ and Gram− bacteria: dose or concentration left out as unconfirmed; key to Antibiotic activity: low: Weak antibiotic activity on only 1 of the 3 bacterial strains (i.e. S aureus); high: Strong antibiotic activity on all 3 bacterial strains; Significant antibiotic activity on two bacterial strains. The procedure:
Bacterial strains used in this study were: S. aureus (ATCC25923), E. coli (ATCC25922), E. faecalis (ATCC29212) and P. aeruginosa (PA01). Strains were maintained at −80° C. in 15% (v/v) glycerol for cryoprotection. Bacteria were routinely grown in Mueller-Hinton (MH) broth at 37° C.
The susceptibility of bacterial strains to antibiotics and compounds was determined in microplates using the standard broth dilution method in accordance with the recommendations of the Comité de 1′Antibiogramme de la Société Française de Microbiologie (CA-SFM). (Members of the SFM Antibiogram Committee, R. Int. J. Antimicrob. Agents 2003, 21, 364). Briefly, the Minimal Inhibitory Concentrations (MICs) were determined with an inoculum of 10^5 CFU in 200 μL of MH broth containing two-fold serial dilutions of each drug. […] To determine all MICs, the measurements were independently repeated in triplicate.
The compound of formula (Ia) according to the invention was tested against clinical isolates Gram-bacteria (P. aeruginosa, E. coli) and Gram+ bacteria (S. aureus, E. faecalis). Minimum inhibitory concentrations (MIC) were tentatively determined and compared to known antibiotic tetracyclines (doxycycline, demeclocycline, chlortetracycline) and to the compound of formula (B) disclosed in Example 1 of the present application. The test was reproduced twice and the average MIC were calculated.
(§1) The properties of tetracycline derivatives, including the compound of formula (Ia) according to the present invention, were compared regarding the neuroprotection, anti-inflammatory effects, anti-aggregant activity, and antibiotic activity. The properties were evaluated as described herein above.
(§2) EC50s, IC50s determined graphically, *Rescue of dopamine neurons from spontaneous oxidative stress; ** TNF α release inhibition under LPS exposure, ^#Weak antibiotic activity on only 1 of the 3 bacterial strains (i.e. S aureus). ##Strong antibiotic activity on all 3 bacterial strains. ^###Significant antibiotic activity on two bacterial strains.

The subject of data set [3] is dopaminergic neurons (TH+ neurons). In words: Neuroprotection: rescue of dopamine neurons from spontaneous oxidative stress in primary cultures. In kind it is cell-based. The settings on record: for EC50: Neuron, rescue of dopamine neurons from spontaneous oxidative stress, determined graphically, read-out: Neuroprotection (EC 50 μM). On the procedure:
In primary cultures of dopaminergic neurons, TH+ neurons suffer from oxidative stress, leading to the death of the neurons after a few days. When cultured in the presence of a positive reference (apotransferrin), the dopaminergic neurons survive. The neuroprotective effects of 10 μM of doxycycline (DOX) and of 3 μM or 5 μM of the compound of formula (Ia) according to the present invention were evaluated, compared to the effect of 100 μg/mL of apotransferrin (APO).
as §1, §2

The test system of data set [4] is microglia cells (TNF α release under LPS). As to the kind of experiment: Anti-inflammatory effect in microglia, TNF α release inhibition under LPS exposure. In kind it is cell-based. The settings on record: for Anti inflammatory effects (IC 50 in μM): TNF α release inhibition under LPS exposure, determined graphically. On the procedure: Microglia is in charge of the protection of the neurons. However, under stress conditions, microglia cells are responsible of inflammatory phenomena, leading eventually to the death of the neurons. The anti-inflammatory effects of 5 μM and 20 μM of compound of formula (B) presented in Example 1, of 5 μM and 20 μM of compound of formula (Ia) according to the present invention and of 50 μM of doxycycline (DOX) were evaluated, compared to the effect of 2.5 μM of dexamethasone (DEX). Microglia is in charge of the protection of the neurons. However, under stress conditions, microglia cells are responsible of inflammatory phenomena, leading eventually to the death of the neurons. The anti-inflammatory effects of 10 μM and 20 μM of compound of formula (C) (“10 μM (C)” and “20 μM (C)”) and of 10 μM and 20 μM of compound of formula (Ia) according to the present invention (“10 μM (Ia)” and “20 μM (Ia)”) were evaluated, compared to the effect of 2.5 μM of dexamethasone (“DEX”). The properties of tetracycline derivatives, including the compound of formula (Ia) according to the present invention, were compared regarding the neuroprotection, anti-inflammatory effects, anti-aggregant activity, and antibiotic activity. The properties were evaluated as described herein above. EC50s, IC50s determined graphically, *Rescue of dopamine neurons from spontaneous oxidative stress; ** TNF α release inhibition under LPS exposure, ^#Weak antibiotic activity on only 1 of the 3 bacterial strains (i.e. S aureus). ##Strong antibiotic activity on all 3 bacterial strains. ^###Significant antibiotic activity on two bacterial strains.

A short description of data set [5]: Brain penetration after single subcutaneous injection. The class given is in vivo. Particulars: mouse, brain and serum, sc; 40 mg/kg single subcutaneous injection, Swiss mice, 30 min to 24 h, n=3; read-out: brain-to-plasma ratio calculated from the area under the concentration time curves. On the procedure:
Adult Swiss mice received a single subcutaneous injection of 40 mg/kg of the compound of formula (Ia) according to the present invention, the compound of formula (C), or doxycycline diluted in saline with 5% DMSO and 5% Tween 80 (doxycycline was used as a reference tetracycline). The mice were sacrificed 30 min, 1 h, 8 h, and 24 h after treatment. After sacrifice, brain and serum samples were collected and processed at each time point for tetracycline dosage, using an UHPLC system coupled with a triple quadrupole mass spectrometer LCMS-8030 (Shimadzu Corporation, Kyoto, Japan).

Where [6] appears, read: 10 μM and 20 μM, compared to dexamethasone 2.5 μM.

The source of these data is patent publication US20260021119A1, “TETRACYCLINE DERIVATIVES” (ICM (INSTITUT DU CERVEAU ET DE LA MOELLE ÉPINIÈRE), priority 2022, published 2026).

In the case of `NC(=O)C1=C(O)CC2CC3C(=C(O)C2C1=O)C(=O)c1c(O)ccc(Cl)c1[C@H]3O` (stereo partly drawn) [Compound of formula (C)], in data set [1], the “Anti aggregant activity at 20 μM” value was “yes”. The Antibiotic activity entry in data set [2] (summary over bacterial strains) is “low^#”. In addition, the EC50 in data set [3] is 0.81 µM. Also, the “anti-inflammatory effect (LPS)” value in data set [4] (setting [6]) is given as “unable to counteract the inflammatory process”. The “Anti inflammatory effects (IC 50 in μM)” value in data set [4] is on record as “no”. For the same molecule, the Kp in data set [5] was 0.27 ± 0.13.

For the molecule `C[C@H]1c2cccc(O)c2C(=O)C2=C(O)C3C(=O)C(C(N)=O)=C(O)C[C@@H]3[C@@H](O)[C@@H]21` (stereo partly drawn) [Compound of formula (Ia), (4aS,5R,5aR,6R)-3,5,10,12-tetrahydroxy-6-methyl-1,11-dioxo-1,4,4a,5,5a,6,11,12a-octahydrotetracene-2-carboxamide], the “inhibition of alpha-synuclein aggregation (ThT fluorescence)” value in data set [1] (10 μM, 20 μM and 50 μM compound, 70 μM alpha-synuclein, 37° C., 5 days, vs control, dose dependent) is listed as “significantly inhibits”. Also, the “Anti aggregant activity at 20 μM” value in data set [1] is recorded as “yes”. In addition, in data set [2], the “activity against Gram+ and Gram− bacteria” value is “did not show any activity”. Moreover, the neuroprotective effect result in data set [3] (3 μM and 5 μM, compared to apotransferrin 100 μg/mL) is “highly protective”. Further, in data set [3], the EC50 worked out at 1.58 µM. For the same molecule, the “anti-inflammatory effect (LPS)” value in data set [4] (5 μM and 20 μM, superior to doxycycline 50 μM and compound of formula (B)) is “counteracts inflammatory process”; in data set [4] (setting [6]), “counteracts inflammatory process”. In data set [4], the “Anti inflammatory effects (IC 50 in μM)” value is recorded as “yes”. The Kp in data set [5] was 0.21 ± 0.05.
